We go through seven compounds from ChEMBL document CHEMBL6177980 (J Med Chem, 2025).

Structures are written as SMILES. Converted amounts (≈) assume the structure as drawn.

A short description of series [1]: Stability of compound at pH 6.8 assessed as change in purity at 1 mg/ml incubated for 24 hrs by HPLC analysis. Conditions: buffer, pH 6.8, 24 h. It is filed as physicochemical.
The nature of series [2]: AUC (0 to t) in fasted Sprague-Dawley rat at 19 mg/kg, po by LC-MS/MS analysis. Format: ADME, organism-based. Conditions: in vivo.
Series [3] in a line: Stability of compound at pH 4.0 assessed as change in purity at 1 mg/ml incubated for 24 hrs by HPLC analysis. It is filed as physicochemical. The conditions noted are these: buffer, pH 4, 24 h.
A short description of series [4]: Cmax in fasted Sprague-Dawley rat at 19 mg/kg, po by LC-MS/MS analysis. Format: ADME, organism-based. The conditions noted are these: in vivo.
The nature of series [5]: Stability of compound at pH 4.0 assessed as change in purity at 1 mg/ml incubated for 12 hrs by HPLC analysis. Conditions: buffer, pH 4, 12 h. It is filed as physicochemical.
A short description of series [6]: Stability of compound at pH 1.5 assessed as change in purity at 1 mg/ml incubated for 24 hrs by HPLC analysis. Conditions: buffer, pH 1.5, 24 h. Format: physicochemical.
Series [7] can be described thus: Stability of compound at pH 6.8 assessed as change in purity at 1 mg/ml incubated for 4 hrs by HPLC analysis. Format: physicochemical. Conditions: buffer, pH 6.8, 4 h.
Series [8] in a line: Stability of compound at pH 1.5 assessed as change in purity at 1 mg/ml incubated for 12 hrs by HPLC analysis. Format: physicochemical. The conditions noted are these: buffer, pH 1.5, 12 h.
The nature of series [9]: Stability of compound at pH 6.8 assessed as change in purity at 1 mg/ml incubated for 12 hrs by HPLC analysis. Format: physicochemical. The conditions noted are these: buffer, pH 6.8, 12 h.
Series [10] can be described thus: Stability of compound at pH 4.0 assessed as change in purity at 1 mg/ml incubated for 4 hrs by HPLC analysis. Conditions: buffer, pH 4, 4 h. Format: physicochemical.
A short description of series [11]: Stability of compound at pH 1.5 assessed as change in purity at 1 mg/ml incubated for 4 hrs by HPLC analysis. Format: physicochemical. Conditions: buffer, pH 1.5, 4 h.
The nature of series [12]: Oral bioavailability in fasted Cynomolgus monkey administered orally by LC-MS/MS analysis. The conditions noted are these: in vivo. Format: ADME, organism-based, Macaca fascicularis.
Series [13] is described as follows: Cmax in fasted Sprague-Dawley rat at 25 mg/kg, po by LC-MS/MS analysis. Format: ADME, organism-based. Conditions: in vivo.
Series [14] in a line: AUC (0 to t) in fasted Sprague-Dawley rat at 25 mg/kg, po by LC-MS/MS analysis. It is filed as ADME, organism-based. Conditions: in vivo.
Series [15] is described as follows: AUC (0 to t) in fasted Sprague-Dawley rat at 27 mg/kg, po by LC-MS/MS analysis. The conditions noted are these: in vivo. Format: ADME, organism-based.
Series [16] can be described thus: Cmax in fasted Sprague-Dawley rat at 27 mg/kg, po by LC-MS/MS analysis. Format: ADME, organism-based. Conditions: in vivo.
Series [17] in a line: AUC (0 to t) in fasted Sprague-Dawley rat at 20 mg/kg, po by LC-MS/MS analysis. Format: ADME, organism-based. Conditions: in vivo.
Series [18] in a line: Cmax in fasted Sprague-Dawley rat at 20 mg/kg, po by LC-MS/MS analysis. It is filed as ADME, organism-based. Conditions: in vivo.
The nature of series [19]: Aqueous solubility of compound. Format: physicochemical. The conditions noted are these: aqueous medium.
Series [20] can be described thus: Cmax in fasted Sprague-Dawley rat at 16.5 mg/kg, po by LC-MS/MS analysis. Format: ADME, organism-based. The conditions noted are these: in vivo.
The nature of series [21]: AUC (0 to t) in fasted Sprague-Dawley rat at 16.5 mg/kg, po by LC-MS/MS analysis. Format: ADME, organism-based. Conditions: in vivo.
Series [22] can be described thus: Half life in fasted Cynomolgus monkey administered orally by LC-MS/MS analysis. It is filed as ADME, Macaca fascicularis. The conditions noted are these: in vivo, route po.
Series [23] in a line: AUC (0 to t) in fasted Sprague-Dawley rat at 21 mg/kg, po by LC-MS/MS analysis. It is filed as ADME, organism-based. Conditions: in vivo.
Series [24] in a line: Cmax in fasted Sprague-Dawley rat at 21 mg/kg, po by LC-MS/MS analysis. It is filed as ADME, organism-based. The conditions noted are these: in vivo.
The nature of series [25]: Oral bioavailability in fasted Cynomolgus monkey at 5 mg/kg by LC-MS/MS analysis. Format: ADME, organism-based, Macaca fascicularis. The conditions noted are these: in vivo.
The nature of series [26]: Cmax in fasted Sprague-Dawley rat at 5 mg/kg, iv by LC-MS/MS analysis. Format: ADME, organism-based. The conditions noted are these: in vivo.
A short description of series [27]: AUC (0 to t) in fasted Sprague-Dawley rat at 10 mg/kg, po by LC-MS/MS analysis. It is filed as ADME, organism-based. The conditions noted are these: in vivo.
Series [28] in a line: Half life in fasted Cynomolgus monkey at 5 mg/kg, po by LC-MS/MS analysis. It is filed as ADME, organism-based, Macaca fascicularis. Conditions: in vivo.
A short description of series [29]: Cmax in fasted Cynomolgus monkey at 5 mg/kg, po by LC-MS/MS analysis. It is filed as ADME, organism-based, Macaca fascicularis. The conditions noted are these: in vivo.
The nature of series [30]: Stability in SGF assessed as compound degradation measured for 24 hrs by HPLC analysis. Format: physicochemical. Conditions: simulated gastric fluid (SGF), read-out: Drug degradation.
The nature of series [31]: AUC (0 to t) in fasted Cynomolgus monkey at 5 mg/kg, po by LC-MS/MS analysis. It is filed as ADME, organism-based, Macaca fascicularis. Conditions: in vivo.
Series [32] can be described thus: AUC (0 to t) in fasted Sprague-Dawley rat at 5 mg/kg, iv by LC-MS/MS analysis. Format: ADME, organism-based. Conditions: in vivo.
A short description of series [33]: AUC (0 to t) in fasted Cynomolgus monkey at 2 mg/kg, iv by LC-MS/MS analysis. Format: ADME, organism-based, Macaca fascicularis. The conditions noted are these: in vivo.
Series [34] is described as follows: Stability in SIF assessed as compound degradation measured for 24 hrs by HPLC analysis. Format: physicochemical. Conditions: simulated intestinal fluid (SIF), read-out: Drug degradation.
Series [35] in a line: Cmax in fasted Sprague-Dawley rat at 10 mg/kg, po by LC-MS/MS analysis. Format: ADME, organism-based. Conditions: in vivo.
A short description of series [36]: Half life in fasted Cynomolgus monkey at 2 mg/kg, iv by LC-MS/MS analysis. Conditions: in vivo. Format: ADME, organism-based, Macaca fascicularis.
Series [37] in a line: Cmax in fasted Cynomolgus monkey at 2 mg/kg, iv by LC-MS/MS analysis. Format: ADME, organism-based, Macaca fascicularis. Conditions: in vivo.

On to `CC(C)C(=O)OC[C@@]1(F)O[C@@H](n2ccc(=O)n(COC(=O)c3cccnc3)c2=O)[C@@H]2OC(=O)O[C@@H]21`, for which the Activity in [1] is -88.3%; in [3], -10.5%; in [5], -5.4%; in [6] it was -9.5%; in series [7], -45%; in series [8], -5.5%. Besides, the Activity in series [9] is -76%; in [10], -1.9%; in series [11], -2.1%. In series [2], this compound yielded an AUC(0-t) of 9450 ng·h/mL. In addition, the peak level in series [4] (Cmax) was 1200 ng/mL.

Regarding `CC(C)C(=O)OC[C@@]1(F)O[C@@H](n2ccc(=O)n(COC(=O)[C@@H]3CCCN3C)c2=O)[C@H](OC(=O)C(C)C)[C@@H]1OC(=O)C(C)C.Cl`, the Activity in series [1] is reported as -95%; in series [3] it was -52.7%; in series [5], -29.8%; in series [6], -7.6%; in series [7], -62.9%; in series [8], -3.6%. Further, the Activity in [9] was -95%; in series [10] it was -10.9%; in [11] it was -1.5%. Besides, in series [12], the bioavailability is 91%. For the same compound, the maximum concentration (Cmax) in [13] was 2150 ng/mL. In [14], this compound yielded an AUC(0-t) of 14200 ng·h/mL.

In the case of `O=C(OCn1c(=O)ccn([C@@H]2O[C@](F)(COC(=O)c3cccnc3)[C@@H](OC(=O)c3cccnc3)[C@H]2OC(=O)c2cccnc2)c1=O)c1cccnc1`, the AUC(0-t) in series [15] was 9080 ng·h/mL. In addition, the concentration in series [16] peaked (Cmax) at 708 ng/mL.

`CC(=O)OC[C@@]1(F)O[C@@H](n2ccc(=O)n(COC(=O)c3cccnc3)c2=O)[C@H](OC(C)=O)[C@@H]1OC(C)=O` showed an AUC(0-t) in series [17] of 15700 ng·h/mL. Moreover, the Activity is -8.6% in series [1]; -0.1% in [3]; -0.1% in [5]; -15.7% in series [6]; -1.6% in series [7]; -8.5% in series [8]. Further, the Activity in series [9] is reported as -4.3%; in series [10], 0%; in series [11] it was -3%. The compound further yielded a bioavailability in series [12] of 100%. This compound returned a peak concentration (Cmax) in series [18] of 3120 ng/mL. In series [19], the concentration in solution (solubility) was 700 µg/mL (≈ 1340 µM).

With `CC(C)C(=O)OCn1c(=O)ccn([C@@H]2O[C@](F)(COC(=O)C(C)C)[C@@H](O)[C@H]2O)c1=O`, the Activity in series [1] is -4.1%; in [3], -3%; in series [5] it was -1.8%; in [6], -11.2%; in series [7], -1%; in [8] it was -6%. The results for the Activity in [9], in [10] and in series [11] were -2.4%, -0.9% and -2%, respectively. Besides, in [12], the bioavailability amounted to 66.2%. Also, the highest concentration (Cmax) in series [20] was 3140 ng/mL. The AUC(0-t) in series [21] came to 20100 ng·h/mL. The compound further showed a half-life in series [22] of 6.84 h.

Turning to `CC(=O)O[C@H]1[C@H](n2ccc(=O)n(COC(=O)c3cccnc3)c2=O)O[C@](F)(COC(=O)C(C)C)[C@H]1OC(C)=O`, the Activity is -31% in [1]; -0.2% in series [3]; -0.1% in series [5]; -10.4% in series [6]; -6.7% in [7]; -5.6% in series [8]. The Activity in series [9] is given as -16.4%; in [10] it was -0.1%; in series [11], -2%. This compound gave a bioavailability in series [12] of 86.4%. For the same compound, the AUC(0-t) in series [23] is 13500 ng·h/mL. This compound gave a maximum concentration (Cmax) in [24] of 2190 ng/mL. This compound displayed a solubility in series [19] of 410 µg/mL (≈ 743 µM).

On to `O=c1ccn([C@@H]2O[C@](F)(CO)[C@@H](O)[C@H]2O)c(=O)[nH]1`, for which the Activity in series [1] is recorded as -67.1%; in series [3], -43.5%; in series [5], -24.9%; in [6], -86.9%; in series [7], -18.1%; in series [8], -64.4%. The values for the Activity in [9], in series [10] and in series [11] were -44.8%, -8.8% and -27.9%, respectively. Moreover, in series [25], the bioavailability stood at 62.9%. The Cmax in series [26] was found to be 2900 ng/mL; in series [29] it was 2850 ng/mL; in series [35] it was 1740 ng/mL; in series [37] it was 2530 ng/mL. In addition, the exposure AUC(0-t) in [27] was determined as 13000 ng·h/mL; in [31], 11600 ng·h/mL; in series [32] it was 7810 ng·h/mL; in series [33] it was 4830 ng·h/mL. The half-life in [28] is 5.13 h; in series [36], 4.34 h. The degraded at 24 h in series [30] and in [34] was greater than 80% throughout.
